“And” between values parts separate entries of the source, which are not always exact repeats. Equal entries are not always repeated. Where two headings read alike, the source gives them in different places.
Legend:
Amyloid β 1–40 H13A [1] = test: SPR; preformed fibrils immobilised on a CM5 chip by amine coupling (3500 RU), probed with monomers of the same variant; monomer onto fibril end; 25 °C, 20 μL/min, 20 mM acetate pH 5.5, 150 mM NaCl; slow phase of dissociation only; KD = RD/RA x KD of Aβ1-40 wt (1 nM, from earlier work)
Amyloid β 1–40 H13A [2] = test: SPR; preformed fibrils immobilised on a CM5 chip by amine coupling (3500 RU), probed with monomers of the same variant; monomer onto fibril end; 25 °C, 20 μL/min, 20 mM phosphate pH 7.4, 150 mM NaCl; slow phase of dissociation only; KD = RD/RA x KD of Aβ1-40 wt (100 nM, from earlier work)
Amyloid β 1–40 H14A [3] = test: SPR; preformed fibrils immobilised on a CM5 chip by amine coupling (3500 RU), probed with monomers of the same variant; monomer onto fibril end; 25 °C, 20 μL/min, 20 mM acetate pH 5.5, 150 mM NaCl; slow phase of dissociation only; KD = RD/RA x KD of Aβ1-40 wt (1 nM, from earlier work)
Amyloid β 1–40 H14A [4] = test: SPR; preformed fibrils immobilised on a CM5 chip by amine coupling (3500 RU), probed with monomers of the same variant; monomer onto fibril end; 25 °C, 20 μL/min, 20 mM phosphate pH 7.4, 150 mM NaCl; slow phase of dissociation only; KD = RD/RA x KD of Aβ1-40 wt (100 nM, from earlier work)
[5] = test system: immobilised Aβ fibrils / fibrillar end; test: Fibril stability (KD, RD/RA, potentiation factor) from SPR association and dissociation; assay type: binding; conditions: 25 °C, relative to Aβ1–40 wt
Protocol: (§1) The interaction study between the fibrillar form of Aβ and its monomeric form was performed using a BIAcore® 3000 biosensor (GE Healthcare®, Uppsala, Sweden) equipped with a CM5 sensor chip (GE Healthcare®). First, the fibrillar form of Aβ was immobilised at a density of 3500 response units (RUs) on the dextran layer of the chip using standard amino coupling reagents at pH 4.0. All SPR experiments were performed at 25 °C at a flow rate of 20 μL·min^−1 in either a 20 mM phosphate buffer (pH 7.4) or 20 mM acetate buffer (pH 5.5). All experiments were performed in the presence of 150 mM NaCl, which represents a physiological ion‐strength.
(§2) All sensograms were corrected for nonspecific interactions using a reference surface according to standard procedures 16.
While a simple interaction between, for example, a receptor and ligand can easily be determined through saturation experiments, this cannot be done with polymers since they, per definition, cannot be saturated.
This problem can, however, be circumvented by defining the concentration of free monomers where the fibrils are at steady state, i.e. the concentration of free monomers where neither association nor dissociation can be detected. We have previously shown that the KD for Aβ1–40 wt at neutral pH is around 100 nM and around 1 nM at pH 5.5 11, 13. The KD at neutral pH has also been investigated by Hasegawa and co‐workers 14 with similar results. All figures used here are therefore given as relative values to the KD for Aβ1–40 wt corresponding to 100 nM at neutral pH and 1 nM at pH 5.5.
Multiplying the relative RD/RA with the KD for Aβ 1–40 wt will then give the KD for the histidine derivatives.

[6] = test system: corresponding immobilised fibrils (fibrillar form of Aβ); test: SPR dissociation rate k(off) of Aβ fibrils, slow phase, relative to Aβ1–40 wt; assay type: binding; conditions: for RD, relative dissociation (k(off) versus Aβ1–40 wt): 150 mM NaCl, 25 °C, after 2 μM monomer injection, slow phase, points before 100 s excluded, one exponential decay, Aβ1–40 wt = 1
Protocol: (§3) Recombinant variants of Aβ1–40, Aβ1–40 H6A, Aβ1–40 H13A, Aβ1–40 H14A and Aβ1–40 H6A, H13A, H14A were obtained from AlexoTech (Umeå, Sweden). All lyophilised peptides were solubilised in 20 mM NaOH and separated by size‐exclusion chromatography (Superdex 10/300, GE Life Science, Uppsala, Sweden) in PBS with 2 mM EDTA, 5 mM NaOH and 150 mM NaCl. The pH of all purified peptide solutions was adjusted using a stock solution of phosphate or acetate buffer to give a final buffer concentration corresponding to 20 mM phosphate (pH 7.4) or acetate (pH 5.5) and 150 mM NaCl.
as §1, §2
Note that the dissociation phase exposes a biphasic curvature. This is highly representative and frequently observed when performing these kinds of experiments. […] All analyses of decay rates within this work are therefore exclusively focused on the slower second phase of dissociation.
In contrast to the association rate, kon, the rate of dissociation, koff, is independent of the concentration of monomers. Subsequent to probing, the immobilised fibrils with free monomers, the rate of dissociation can be seen as a decrease in the signal over time.
Because the latter part of the curve, representing the slower phase of dissociation (indicated by arrow 3 Fig. 1), strongly dominates the interaction strength, we have exclusively focused on this part, and no points before 100 s were included in the curve. The dissociation curve could then be fitted to a one exponential decay.

[7] = test system: corresponding immobilised fibrils (fibrillar form of Aβ); test: SPR association rate k(on) of Aβ monomers onto immobilised fibrils, relative to Aβ1–40 wt; assay type: binding; conditions: for RA, relative association (k(on) versus Aβ1–40 wt): 150 mM NaCl, 25 °C, 20 μL·min^−1, CM5 chip, fibrils at 3500 RU, end state after 60 s injection, Aβ1–40 wt = 1
Protocol: as §3, §1
Due to the polymeric nature of amyloid fibrils, the covalent immobilisation on the sensor chip, likely only occurs in minor fraction of the accessible amino groups. This treatment is therefore not anticipated to influence the overall incorporation of monomers in a significant manner. However, the influence from using immobilised fibrils or the dextran layer cannot be fully excluded and should therefore be disclosed.
as §2
Probing free monomeric Aβ against immobilised fibrils using SPR is a frequently used technique for measuring the intrinsic kinetic properties of Aβ polymerisation 11, 14, 17, 18, 19.
Fibrils from recombinant variants of Aβ1–40, Aβ1–40 H6A, Aβ1–40 H13A, Aβ1–40 H14A and Aβ1–40 H6A, H13A, H14A were prepared by prolonged incubation in either PBS (pH 7.4) or acetate buffer pH 5.5 containing 150 mM NaCl. Fibrils immobilised on a CM5 chip were then probed with their monomeric counterpart at different concentrations of Aβ monomers and analysed by SPR. Samples were injected for exactly 60 s and the maximal value at the end state of each injection (indicated by arrow 1 in Fig. 1A) was plotted as a function of the monomeric concentration, Fig. 2. This generates an association rate at each point of measurement. A guideline is given in the figures to illustrate the linearity.
By comparing the rate between the different Aβ variants, it is possible to determine relative differences in k(on).

[8] = target: immobilised Aβ fibrils / fibrillar end; conditions: cited from earlier work
Source text: Table 1 Relative change of association and dissociation rates of Aβ1–40 wt and the His‐Ala Aβ variants, and the potentiation of Aβ fibril formation as a function of lowering the pH. RA, Relative association; RD, Relative dissociation; PnF, Potentiation factor KD(pH7.4)/KD(pH5.5) | column: pH 7.4 / KD (nM); pH 5.5 / KD (nM) || The formation of Aβ fibrils requires an initial nucleation event, and fibril elongation involves the addition of monomers to an existing fibril. […] The KD for Aβ1–40 can be as much as 120 times lower at pH 4.5 than pH 7.4. […] It is therefore of interest to elucidate the stabilising factors associated with fibril stability and the potentiating ... || (+ 3 further places)

Amyloid β 1–40 H13A (peptide) gave a Kd (Amyloid β 1–40 H13A [1]) of 2.11 nM, an RA (association rate relative to Aβ1-40 wt) (Amyloid β 1–40 H13A [1]) of 1.01 and an RD (dissociation rate relative to Aβ1-40 wt) (Amyloid β 1–40 H13A [1]) of 2.13. For the same substance, the Kd (Amyloid β 1–40 H13A [2]) was 716 nM, the RA (association rate relative to Aβ1-40 wt) (Amyloid β 1–40 H13A [2]) was 0.31 and the RD (dissociation rate relative to Aβ1-40 wt) (Amyloid β 1–40 H13A [2]) was 2.22.

In the case of Amyloid β 1–40 H14A (peptide), the Kd (Amyloid β 1–40 H14A [3]) is reported as 2.19 nM, the RA (association rate relative to Aβ1-40 wt) (Amyloid β 1–40 H14A [3]) is reported as 1.01 and the RD (dissociation rate relative to Aβ1-40 wt) (Amyloid β 1–40 H14A [3]) is reported as 2.22. For the same substance, the Kd (Amyloid β 1–40 H14A [4]) was 794 nM, the RA (association rate relative to Aβ1-40 wt) (Amyloid β 1–40 H14A [4]) was 0.34 and the RD (dissociation rate relative to Aβ1-40 wt) (Amyloid β 1–40 H14A [4]) was 2.7.

With Aβ1–40 H14A the RD/RA ([5]; pH 7.4, 150 mM NaCl) was 7.94, the “RD, relative dissociation (k(off) versus Aβ1–40 wt)” value (“RD, relative dissociation” for short) ([6]; pH 5.5, 20 mM acetate) was 2.22 and the “RD, relative dissociation” value ([6]; pH 7.4, 20 mM phosphate) was 2.70. The “RA, relative association (k(on) versus Aβ1–40 wt)” value (shortened to “RA, relative association”) ([7]; pH 5.5, 20 mM acetate) was 1.01 and the “RA, relative association” value ([7]; pH 7.4, 20 mM phosphate) was 0.34.

In the case of “Aβ1–42: one of the two dominant forms of amyloid β”, the “critical concentration (KD), in words” value ([8]; neutral pH, compared with Aβ1–40) is listed as “slightly lower”.

For “Aβ1–40 wt: wild‐type amyloid β 1–40, recombinant, obtained from AlexoTech (Umeå, Sweden) [reference compound]”, the RD/RA ([5]; pH 5.5, 150 mM NaCl) was 1, the RD/RA ([5]; pH 7.4, 150 mM NaCl) was 1 and the “RD, relative dissociation” value ([6]; pH 5.5, 20 mM acetate) was 1. The “RD, relative dissociation” value ([6]; pH 7.4, 20 mM phosphate) was 1, the “stabilisation / dissociation on lowering the pH, in words” value ([6]; pH 7.4 to 5.5) was “significantly stabilised by the decrease in pH” and the “RA, relative association” value ([7]; pH 5.5, 20 mM acetate) was 1. For the same substance, the “rate of association, in words” value ([7]; pH 5.5 versus pH 7.4) was “much faster rate of association”, the “RA, relative association” value ([7]; pH 7.4, 20 mM phosphate) was 1 and the Kd ([8]; neutral pH (pH 7.4), reference value for the relative KDs, read-out: KD (critical concentration)) was ~100 nM and 100 nM. For the same substance, the Kd ([8]; neutral pH, read-out: critical concentration (KD)) was ~100 nM, the “decrease of KD at pH 4.5 versus pH 7.4 (times lower)” value ([8]; pH 4.5 vs pH 7.4, "as much as") was ≤ 120 times and the Kd ([8]; pH 5.5, reference value for the relative KDs, read-out: KD) was ~1 nM and 1 nM.
